Reference: PubChem BioAssay AID1963833 (Molecular Pharmacology Branch, DTP, NCI, 2024)

Test system: 883617-216-R-J1-PDC complex spheroid viability
Test: Anticancer human tumor 883617-216-R-J1-PDC patient-derived bladder carcinoma cell line growth inhibition [POLQ]
Details: for IC50: curve of first compound; for viability, T/C: stronger effect = lower value; active means viability on the fitted dose curve at most 10% of control; inactive means the rest
Procedure, shortened: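 Three-cell-type spheroids modelling solid tumor plus stroma served as the readout system; POL inhibitors were tested individually and in combination, concentration ranges set by clinical Cmax where known.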

[1] = second compound 0.0316 µM, first compound 0.0316 µM
[2] = second compound 0.0316 µM, first compound 0.1 µM
[3] = second compound 0.0316 µM, first compound 0.316 µM
[4] = second compound 0.0316 µM, first compound 1 µM
[5] = second compound 0.0316 µM, first compound 3.16 µM
[6] = second compound 0.0316 µM, first compound 10 µM
[7] = second compound 0.1 µM, first compound 0.0316 µM
[8] = second compound 0.1 µM, first compound 0.1 µM
[9] = second compound 0.1 µM, first compound 0.316 µM
[10] = second compound 0.1 µM, first compound 1 µM
[11] = second compound 0.1 µM, first compound 3.16 µM
[12] = second compound 0.1 µM, first compound 10 µM
[13] = second compound 0.316 µM, first compound 0.0316 µM
[14] = second compound 0.316 µM, first compound 0.1 µM
[15] = second compound 0.316 µM, first compound 0.316 µM
[16] = second compound 0.316 µM, first compound 1 µM
[17] = second compound 0.316 µM, first compound 3.16 µM
[18] = second compound 0.316 µM, first compound 10 µM
[19] = second compound 1 µM, first compound 0.0316 µM
[20] = second compound 1 µM, first compound 0.1 µM
[21] = second compound 1 µM, first compound 0.316 µM
[22] = second compound 1 µM, first compound 1 µM
[23] = second compound 1 µM, first compound 3.16 µM
[24] = second compound 1 µM, first compound 10 µM
[25] = second compound 3.16 µM, first compound 0.0316 µM
[26] = second compound 3.16 µM, first compound 0.1 µM
[27] = second compound 3.16 µM, first compound 0.316 µM
[28] = second compound 3.16 µM, first compound 1 µM
[29] = second compound 3.16 µM, first compound 3.16 µM
[30] = second compound 3.16 µM, first compound 10 µM
[31] = second compound 10 µM, first compound 0.0316 µM
[32] = second compound 10 µM, first compound 0.1 µM
[33] = second compound 10 µM, first compound 0.316 µM
[34] = second compound 10 µM, first compound 1 µM
[35] = second compound 10 µM, first compound 3.16 µM
[36] = second compound 10 µM, first compound 10 µM
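Further: spheroids exposed to compounds for seven days before readout.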
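Wherever viability, T/C is given: 100% = DMSO vehicle control viability.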

O=C(Nc1ccc(O)c(NS(=O)(=O)c2ccc(F)cc2)c1)c1ccc(-c2ccccc2)cc1 + COC1C(OC(N)=O)C(O)C(Oc2ccc3c(O)c(NC(=O)c4ccc(O)c(CC=C(C)C)c4)c(=O)oc3c2C)OC1(C)C
inactive: viability, T/C [1] 95.1% | viability, T/C [2] 90.8% | viability, T/C [3] 83.6% | viability, T/C [4] 84.6% | viability, T/C [5] 95.9% | viability, T/C [6] 64.9% | viability, T/C [7] 81.6% | viability, T/C [8] 100% | viability, T/C [9] 81% | viability, T/C [10] 89.6% | viability, T/C [11] 81.3% | viability, T/C [12] 62.4% | viability, T/C [13] 88.1% | viability, T/C [14] 104% | viability, T/C [15] 83.8% | viability, T/C [16] 90.1% | viability, T/C [17] 89.5% | viability, T/C [18] 53.2% | viability, T/C [19] 86.4% | viability, T/C [20] 86.5% | viability, T/C [21] 93.3% | viability, T/C [22] 90.4% | viability, T/C [23] 81.7% | viability, T/C [24] 62.9% | viability, T/C [25] 88.9% | viability, T/C [26] 96.4% | viability, T/C [27] 97.3% | viability, T/C [28] 73.5% | viability, T/C [29] 77% | viability, T/C [30] 65.7% | viability, T/C [31] 103% | viability, T/C [32] 87.5% | viability, T/C [33] 98.3% | viability, T/C [34] 83.2% | viability, T/C [35] 89.7% | viability, T/C [36] 70.4%
> 10000 nM: IC50 (second compound 0.0316 µM) | IC50 (second compound 0.1 µM) | IC50 (second compound 0.316 µM) | IC50 (second compound 1 µM) | IC50 (second compound 3.16 µM) | IC50 (second compound 10 µM)

COc1cccc2c1C(=O)c1c(O)c3c(c(O)c1C2=O)CC(O)(C(=O)CO)CC3OC1CC(N)C(O)C(C)O1 (centres undefined) + Cc1cccc(N(C)C(=O)C2C(O)CCN2c2nc(C)cc(C(F)(F)F)c2C#N)c1
222 nM: IC50 (second compound 0.316 µM)
206 nM: IC50 (second compound 3.16 µM)
active: viability, T/C [5] 0.22% | viability, T/C [6] 0.21% | viability, T/C [10] 8.29% | viability, T/C [11] 0.32% | viability, T/C [12] 0.2% | viability, T/C [16] 6.2% | viability, T/C [17] 0.22% | viability, T/C [18] 0.2% | viability, T/C [22] 5.25% | viability, T/C [23] 0.22% | viability, T/C [24] 0.2% | viability, T/C [28] 3.99% | viability, T/C [29] 0.31% | viability, T/C [30] 0.29% | viability, T/C [34] 1.41% | viability, T/C [35] 0.35% | viability, T/C [36] 0.34%
228 nM: IC50 (second compound 0.1 µM)
311 nM: IC50 (second compound 0.0316 µM)
359 nM: IC50 (second compound 1 µM)
inactive: viability, T/C [1] 78% | viability, T/C [2] 60.8% | viability, T/C [3] 52.2% | viability, T/C [4] 9.43% | viability, T/C [7] 66.1% | viability, T/C [8] 67.9% | viability, T/C [9] 43.2% | viability, T/C [13] 74.3% | viability, T/C [14] 59.8% | viability, T/C [15] 45.4% | viability, T/C [19] 65.1% | viability, T/C [20] 57.5% | viability, T/C [21] 55.6% | viability, T/C [25] 66.8% | viability, T/C [26] 57.3% | viability, T/C [27] 43.7% | viability, T/C [31] 66% | viability, T/C [32] 58.1% | viability, T/C [33] 51.9%
330 nM: IC50 (second compound 10 µM)
